Measured values reported in patent US7566737B2 (Genfit, priority 2002, dated 2009).

How the values were obtained:
[1] = system: LDL; assay: Protection against LDL oxidation by copper (conjugated diene formation); assay type: biochemical; details: for lag phase of conjugated diene formation / rate of conjugated diene formation: 10^−4M; for antioxidant properties on LDL oxidation by copper (in words): FIGS. 1-1 to 1-14
Protocol: LDL oxidation is an important alteration and plays a predominant role in the establishment and development of atherosclerosis (Jurgens G et al., 1987). […] Unless otherwise indicated, the reagents were from Sigma (St Quentin, France). LDL were prepared according to the method described by (Havel R J et al., 1955). The solutions of test compounds were prepared at 10^−2 M concentration in bicarbonate buffer (pH 9) and diluted in PBS to obtain final concentrations ranging from 0.1 to 100 μM for a total ethanol concentration of […]. Prior to oxidation, EDTA was removed from the LDL preparation by dialysis. Oxidation then took place at 30° C. by addition of 100 μl of 16.6 μM CuSO4 solution to 160 μL of LDL (125 μg protein/ml) and 20 μl of a test compound solution. The formation of dienes, the species under observation, was followed by measuring optical density at 234 nm in the samples treated with the compounds but in the presence or absence of copper. Optical density at 234 nm was measured every 10 minutes for 8 hours in a thermostated spectrophotometer (Tecan Ultra 380). The compounds were considered to have antioxidant activity when they induced a longer lag phase and reduced the rate of oxidation and the amount of dienes formed in comparison with the control sample.

[2] = molecular target: T1, human PPARα (Homo sapiens, UniProt Q07869); assay: PPARα/Gal4 transactivation system; assay type: cell-based; details: for maximum induction factor: at the 10 or 1 μm concentrations
T1 construct: expressed in transfected cells; host or cells: RK13 or COS-7
T1 sequence (Q07869 239-466 limits assumed): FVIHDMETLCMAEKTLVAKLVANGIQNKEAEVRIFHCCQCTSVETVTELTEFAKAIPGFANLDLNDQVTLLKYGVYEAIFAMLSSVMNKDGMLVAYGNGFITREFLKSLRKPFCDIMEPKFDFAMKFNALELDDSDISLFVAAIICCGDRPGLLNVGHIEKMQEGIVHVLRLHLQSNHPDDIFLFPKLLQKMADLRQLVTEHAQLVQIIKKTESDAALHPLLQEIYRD
Protocol: PPAR activation was tested in vitro in RK13 or COS-7 fibroblast cell lines by measuring the transcriptional activity of chimeras composed of the DNA binding domain of the yeast Gal4 transcription factor and the ligand binding domain of the different PPARs. These latter results were then confirmed in cell lines according to the following protocols.
Culture protocols: RK13 were from ECACC (Porton Down, UK) and were grown in DMEM medium supplemented with 10% (V/V) fetal calf serum, 100 U/ml penicillin (Gibco, Paisley, UK) and 2 mM L-glutamine (Gibco, Paisley, UK). COS-7 cells were from ATCC and were grown in DMEM medium supplemented with 10% (V/V) fetal calf serum, 1% penicillin/streptomycine (Biochrom, AG), 1% of amino acids (Gibco) and 1% sodium pyruvate (Gibco).
The culture medium was changed every two days. Cells were kept at 37° C. in a humidified 95% air/5% CO2 atmosphere.
Description of plasmids used for transfection: The plasmids Gal4(RE)_TkpGL3, pGal4-hPPARα, pGal4-hPPARγ, pGal4-hPPARδ and pGal4-φ have been described in the literature (Raspe E et al., 1999). The pGal4-hPPARα, pGal4-hPPARγ and pGal4-hPPARδ constructs were obtained by cloning into the pGal4-φ vector PCR-amplified DNA fragments corresponding to the DEF domains of the human PPARs nuclear receptors.
Transfection of RK13: RK13 cells were seeded in 24-well culture dishes at 5×10^4 cells/well and transfected for 2 hours with the reporter plasmid Gal4(RE)_TkpGL3 (50 ng/well), the expression vectors pGal4-φ, pGal4-hPPARα, pGal4-hPPARγ and pGal-hPPARδ (100 ng/well) and the transfection efficiency control vector pRL-CMV (1 ng/well) according to the previously described protocol (Raspe E, Madsen L, Lefebvre A M, Leitersdorf I, Gelman L, Peinado-Onsurbe J, Dallongeville J, Fruchart J C, Berge R and Staels B, 1999), then incubated for 36 hours with the test compounds. RK13 cells were incubated with the different compounds at concentrations of 10, 30 and 100 μM or 1, 10 and 100 μM for 24 hours. At the end of the experiment, the cells were lysed (Gibco, Paisley, UK) and luciferase activity was determined with a Dual-Luciferase™ Reporter Assay System kit (Promega, Madison, Wis., USA) according to the supplier's instructions. The protein content of the cell extracts was then measured with the Bio-Rad Protein Assay (Bio-Rad, Munich, Germany) as directed by the supplier.
Transfection of COS7: Cells in suspension are transfected, in the presence of 10% (V/V) fetal calf serum, with 150 ng of DNA per well with a pGal4-PPAR/Gal4(RE)_TkpGL3 ratio of 1/10. Cells are then seeded in 96 well plates (4×10^4 cells/well) and incubated for 24 hours at 37° C. Activation with compounds is performed on 24 hours at 37° C. in culture medium without serum. At the end of the activation period, cells are lysed and luciferase activity is determined, using the Steady Glow Luciferase Kit (Promega), according to the supplier's instructions.

[3] = system: hApoE2 Knock-in transgenic mice; assay: Effects on triglycerides and cholesterol metabolism in vivo; design: species or system mouse
Protocol: Treatment of animals: hApoE2 knock-in transgenic mice were kept on a 12-hour light/dark cycle at a constant temperature of 20±3° C. After a 1 week acclimation, mice were separated in groups of 6 animals selected such that the distribution of their body weight and plasmatic lipid levels determined before the experiment were uniform. The test compounds were suspended in carboxymethylcellulose and administered by intragastric gavage at the indicated doses, once a day for 7 or 8 days. Animals had access to food and water ad libitum. At the end of the experiment the animals were weighed and sacrificed under anesthesia. Blood was collected on EDTA. Plasma was prepared by centrifugation at 3000 rpm for 20 minutes. Organs were harvested, frozen in liquid nitrogen and stored at −80° C. for subsequent analysis.
Measurement of serum lipids: Serum lipid concentrations (total cholesterol and triglycerides) were determined by a colorimetric assay (Boehringer, Mannheim, Germany) according to the supplier's instructions.

[4] = system: Human normal primary fibroblasts; assay: Antioxidant properties on cell cultures (carboxy-H2DCFDA fluorescence, AAPH stress), fibroblasts; assay type: cell-based; details: compounds at 25 μM for 24 h, AAPH 750 μM
Protocol: (§1) The reduction in the intensity of the emitted fluorescence signal was determined in cells treated with the compounds in the following manner.
(§2) Prior to stress the cells with an oxidative agent such as AAPH (CAS number 2997-92-4), cells are incubated with compounds of interest at 25 μM for 24 h. Then the culture medium is discarded and cells are rinsed two times with PBS. Cells are then incubated 30 min at 37° C. with a cell-permeant indicator for reactive oxygen species that is nonfluorescent until the acetate groups are removed by intracellular esterases and oxidation occurs within the cell 5-(and-6)-carboxy-2′,7′-dichlorodihydrofluorescein diacetate (carboxy-H2DCFDA). The probes are prepared in PBS and incubated at the final concentration of 25 μM. After the incubation with the probe, cells are rinsed and incubated another 30 min with the oxidative solution containing AAPH at 750 μM in culture medium without phenol red and serum.
(§3) The fluorescence is then measured with a fluorimeter with the following wavelength, […].
(§4) Two different cell types have been tested with the inventive compounds. Human normal primary fibroblasts and HaCat cells which are a human keratinocyte cell line.

[5] = system: HaCat cells; assay: Antioxidant properties on cell cultures (carboxy-H2DCFDA fluorescence, AAPH stress), keratinocytes; assay type: cell-based, human; details: compounds at 25 μM for 24 h, AAPH 750 μM
Protocol: as §1, §2, §3, §4

[6] = FIG. 1-12, copper alone 120 minutes
[7] = FIG. 1-9, copper alone 80 minutes

Q: How did the “lag phase of conjugated diene formation” value [1, 6] turn out when `CCCCCCCc1ccc(C(=O)/C=C/c2cc(C)c(OC(C)(C)C(=O)OC(C)(C)C)c(C)c2)cc1` [Compound 38, 1-[4-heptylphenyl]-3-[3,5-dimethyl-4-tertbutyloxycarbonyldimethylmethyloxyphenyl]prop-2-en-1-one] was run?
A: The value was 284 min.

Q: What about the “rate of conjugated diene formation” value ([1]; FIG. 1-13, copper alone 1.8) of the same compound?
A: Its value is 0.71 nmol/min/mg of LDL.

Q: What about the “maximum amount of conjugated dienes formed” value ([1]; FIG. 1-14, copper alone 372) of the same compound?
A: Its value is 244 nmol per mg of LDL.

Q: What about the maximum induction factor [2] of the same compound?
A: The maximum induction factor was 22.

Q: For `CCCCCCOc1ccccc1C(=O)/C=C/c1cc(C)c(OC(C)(C)C(=O)O)c(C)c1` [Compound 82, 1-[2-hexyloxyphenyl]-3-[3,5-dimethyl-4-carboxydimethylmethyloxyphenyl]prop-2-en-1-one], which plasma cholesterol ([3]; 50 mg/kg/day for 7 or 8 days, FIGS. 4-13, 4-15, 4-17, 4-19) is on record?
A: Its plasma cholesterol is “decrease”.

Q: And the plasma triglycerides ([3]; 50 mg/kg/day for 7 or 8 days, FIGS. 4-14, 4-16, 4-18, 4-20)?
A: Its plasma triglycerides is “decrease”.

Q: How did the “lag phase of conjugated diene formation” value [1, 7] turn out when `Cc1cc(-c2cc(=O)c3ccc(Cl)cc3o2)cc(C)c1OC(C)(C)C(=O)O` [Compound 35, 2-(3,5-dimethyl-4-carboxydimethylmethyloxyphenyl)-7-chloro-4H-1-benzopyran-4-one] was run?
A: Its value is 149 min.

Q: What about the “rate of conjugated diene formation” value ([1]; FIG. 1-10, copper alone 1.9) of the same compound?
A: Its value is 1.5 nmol/min/mg of LDL.

Q: Which results are given for `Cc1cc(/C=C/C(=O)c2ccc(Br)cc2O)cc(C)c1OC(C)(C)C(=O)O` [Compound 25, 1-[2-hydroxy-4-bromophenyl]-3-[3,5-dimethyl-4-carboxydimethylmethyloxyphenyl]prop-2-en-1-one]?
A: lag phase of conjugated diene formation ([1]; FIG. 1-7, copper alone 82 minutes): 120 min; maximum amount of conjugated dienes formed ([1]; FIG. 1-8, copper alone 393): 378 nmol per mg of LDL

Q: `COc1cc(/C=C/C(=O)c2ccccc2O)cc(OC)c1OC(C)(C)C(=O)O` [Compound 5, 1-[2-hydroxyphenyl]-3-[3,5-dimethoxy-4-carboxydimethylmethyloxyphenyl]prop-2-en-1-one] was tested. Which “antioxidant properties on LDL oxidation by copper (in words)” value (from here on “antioxidant properties on LDL oxidation”) [1] did it give?
A: Its value is “antioxidant properties”.

Q: How did the “antioxidant properties on LDL oxidation” value [1] turn out when `Cc1cc(/C=C/C(=O)c2ccc(Cl)cc2O)cc(C)c1OC(C)(C)C(=O)O` [Compound 7, 1-[2-hydroxy-4-chlorophenyl]-3-[3,5-dimethyl-4-carboxydimethylmethyloxyphenyl]prop-2-en-1-one] was run?
A: The value was “antioxidant properties”.

Q: And the “induction factor (luminescent signal relative to untreated cells)” value ([2]; 30 μM)?
A: The value was 50.

Q: What about the “cholesterol in lipoparticle subfraction (exclusion chromatography)” value ([3]; gavage 200 mg/kg for 7 days) of the same compound?
A: Its value is “decreased”.

Q: What about the “plasma concentration of cholesterol” value ([3]; gavage 200 mg/kg for 7 days) of the same compound?
A: Its value is “decrease”.

Q: And the “plasma concentration of triglycerides” value ([3]; gavage 200 mg/kg for 7 days)?
A: The value was “decrease”.

Q: And the “triglycerides in lipoparticle subfraction (exclusion chromatography)” value ([3]; gavage 200 mg/kg for 7 days)?
A: The value was “decreased”.

Q: What does the source list for `COc1ccccc1C(=O)/C=C/c1cc(C)c(OC(C)(C)C(=O)O)c(C)c1` [Compound 31, 1-[2-methoxyphenyl]-3-[3,5-dimethyl-4-carboxydimethylmethyloxyphenyl]prop-2-en-1-one]?
A: lag phase of conjugated diene formation [1, 7]: 139 min; rate of conjugated diene formation ([1]; FIG. 1-10, copper alone 1.9): 1.6 nmol/min/mg of LDL; induction factor (luminescent signal relative to untreated cells) ([2]; 10 μM): 15.5

Q: Which results are given for `COc1cc(Cl)ccc1C(=O)/C=C/c1cc(C)c(OC(C)(C)C(=O)O)c(C)c1` [Compound 37, 1-[2-methyloxy-4-chlorophenyl]-3-[3,5-dimethyl-4-carboxydimethylmethyloxyphenyl]prop-2-en-1-one]?
A: lag phase of conjugated diene formation [1, 6]: 196 min; rate of conjugated diene formation ([1]; FIG. 1-13, copper alone 1.8): 1.49 nmol/min/mg of LDL; maximum amount of conjugated dienes formed ([1]; FIG. 1-14, copper alone 372): 338 nmol per mg of LDL; maximum induction factor [2]: 27

Q: With `Cc1c(C)c2c(c(C)c1O)CCC(C)(C(=O)O)O2` (stereo not shown) [Trolox, reference compound] as the compound, how does the “% of oxidative reduction versus control cells” value [4] read?
A: The value was 60%.

Q: What about the “% of oxidative reduction versus control cells” value [5] of the same compound?
A: The value was 46%.

Q: With `COc1cc(/C=C/C(=O)c2ccc(Cl)cc2O)cc(OC)c1OC(C)(C)C(=O)O` [Compound 6, 1-[2-hydroxy-4-chlorophenyl]-3-[3,5-dimethoxy-4-carboxydimethylmethyloxyphenyl]prop-2-en-1-one] as the compound, how does the “antioxidant properties on LDL oxidation” value [1] read?
A: Its value is “antioxidant properties”.

Q: For `Cc1cc(/C=C/C(=O)c2ccccc2O)cc(C)c1OC(C)(C)C(=O)O` [Compound 11, 1-[2-hydroxyphenyl]-3-[3,5-dimethyl-4-carboxydimethylmethyloxyphenyl]prop-2-en-1-one], which “induction factor (luminescent signal relative to untreated cells)” value ([2]; 100 μM) is on record?
A: The value was 10.
